Measured values from patent US9234006B2, “Compounds” (Novacta Biosystems Limited, priority 2011, dated 2016).
Structures can show the parent of a compound that is named as a salt. Where a SMILES comes first, the peptide text is derived from it. Bridges are numbered along the chain shown (N, C = ends). [ ]: non-standard residue; d: D form. The star is where a group is joined. ξ: configuration not given here. Thr(3ξ) = CC(O)[C@H](N)C(=O)O; Dab = NCC[C@H](N)C(=O)O; X1 = CCCCCCC(O)C(=O)*; GABA = NCCCC(=O)O

Experiments:
K. pneumoniae NCTC8172 = experiment: MIC susceptibility testing, broth microdilution in CaMHB; assay type: cell-based, Klebsiella pneumoniae
In short: (§1)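 Inoculum prep: 3 to 4 colonies into CaMHB, 18-20 h at 37° C/250 rpm; 100-fold subculture to OD600 0.2-0.3; further 100-fold dilution to inoculate. Duplicate determinations.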

K. pneumoniae NCTC7427 = experiment: as above; assay type: cell-based, Klebsiella pneumoniae
In short: as §1

[1] = system: K. pneumoniae ATCCBAA-1706; experiment: as above; assay type: cell-based, Klebsiella pneumoniae; settings: Table 4
In short: as §1

K. pneumoniae ATCC 4352 = experiment: as above; assay type: cell-based, Klebsiella pneumoniae
In short: as §1

E. coli NCTC9001 = experiment: as above; assay type: cell-based, Escherichia coli
In short: as §1

E. coli ATCC700928 = experiment: as above; assay type: cell-based, Escherichia coli
In short: as §1

E. coli NCTC12900 = experiment: as above; assay type: cell-based, Escherichia coli
In short: as §1

E. coli ATCC25922 = experiment: as above; assay type: cell-based, Escherichia coli
In short: as §1

A. baumannii ATCC19606 = experiment: as above; assay type: cell-based, Acinetobacter baumannii
In short: as §1

A. baumannii NCTC7844 = experiment: as above; assay type: cell-based, Acinetobacter baumannii
In short: as §1

[2] = system: P. aeruginosa clinical isolates and resistant strains; assay type: cell-based; settings: clinical isolates and resistant strains
Protocol: The in vitro antibacterial activities of the compounds of examples 2 and 6 were evaluated against a panel of […] Gram-negative bacterial isolates alongside Colistin. The panel consisted of 100 clinical isolates of each of A. baumannii, E. coli, K. pneumoniae and P. aeruginosa. The panel represented the current epidemiology in Europe and the USA and included a number of relevant strains with defined resistant phenotypes to current clinically-used antibacterial agents. These resistant strains included 20 A. baumannii, 22 E. coli, 25 K. pneumoniae and 20 P. aeruginosa strains.
All compounds were tested up to a maximum concentration of 64 μg/mL with the exception of colistin, which was evaluated up to a maximum concentration of 16 μg/mL.

[3] = Pharmacokinetic and urinary clearance studies in rats; assay type: in vivo
Protocol: Drug solutions were prepared at 4 mg/mL in Normal Saline and the pH adjusted to 6-7 by adding the appropriate volume of 0.1 M H2SO4 or 4.2% NaHCO3. The solutions were filter-sterilized and stored at −80° C. before use. On the day of the experiment, drug solutions were diluted to 1 mg/mL with sterile Normal Saline.
Groups of 3 male Sprague Dawley rats were acclimatised for a minimum of 4 days before the study. Rats were anesthetized using isofluorane and a cannula was inserted into the jugular vein. One day after surgery, rats were dosed with an intravenous bolus injection of the solution at 1 mg/kg through the cannula, followed by washing with Normal Saline. Blood was collected manually through the cannula prior to administration of the compound and at 0.08, 0.25, 0.5, 1, 3, 6, 8 and 24 h thereafter. Plasma was harvested by centrifugation immediately after blood collection. Twenty-four hour urine samples were collected prior to and after administration of the compound in 0-4 h, 4-6 h, and 6-24 h intervals. Plasma and urine samples were frozen at −20° C.
Determination of the plasma and urine concentrations of the drug was performed by Liquid Chromatography Mass Spectrometry (LC-MS/MS). Before analysis the plasma and urine samples were prepared as follows. Plasma samples were thawed on the day of analysis and mixed with 3 volumes of acetonitrile containing 0.1% (v/v) formic acid and 100 ng/mL of internal standard. After centrifugation, supernatants were transferred to a 96-well plate and diluted 1:1 with water ready for analysis by LC-MS/MS. Urine samples were purified by solid-phase extraction (SPE) on Oasis HLB cartridges (Waters, UK) eluting with 100% methanol. An aliquot was transferred to a 96 well plate and diluted 1:1 with water before addition of internal standard solution, ready for analysis by LC-MS/MS.
The pharmacokinetic parameters were determined by non-compartmental analysis using WinNonLin v5.3. The urinary recovery was recorded as the percentage of intact drug recovered in the urine for the first 24 h after injection.

[4] = system: P. aeruginosa ATCCCRM-9027; experiment: MIC susceptibility testing, broth microdilution in CaMHB; assay type: cell-based, Pseudomonas aeruginosa
In short: as §1

P. aeruginosa ATCC 9721 = experiment: as above; assay type: cell-based, Pseudomonas aeruginosa
In short: as §1

P. aeruginosa ATCC10145 = experiment: as above; assay type: cell-based, Pseudomonas aeruginosa
In short: as §1

P. aeruginosa ATCC27853 = experiment: as above; assay type: cell-based, Pseudomonas aeruginosa
In short: as §1

[5] = Table 4A, different batches of cation-adjusted Muller-Hinton broth
[6] = K. pneumoniae ATCC 4352, Table 4
[7] = K. pneumoniae ATCC4352, Table 4A, different batches of cation-adjusted Muller-Hinton broth
[8] = male, Sprague Dawley, rat, in vivo, iv, 1 mg/kg
[9] = P. aeruginosa AATCCRM 9027, Table 4A, different batches of cation-adjusted Muller-Hinton broth
[10] = P. aeruginosa ATCCCRM-9027, Table 4
[11] = P. aeruginosa ATCC 9721, Table 4
[12] = P. aeruginosa ATCC9721, Table 4A, different batches of cation-adjusted Muller-Hinton broth
[13] = male Sprague Dawley rats, intravenous bolus 1 mg/kg
[14] = male Sprague Dawley rats, intravenous bolus 1 mg/kg, plasma

Molecule | MIC (K. pneumoniae NCTC8172; [5]) [micrograms/mL] | MIC (K. pneumoniae NCTC7427; Table 4) [micrograms/mL] | MIC (K. pneumoniae NCTC7427; [5]) [micrograms/mL] | MIC [1] [micrograms/mL] | MIC (K. pneumoniae ATCC 4352; [6]) [micrograms/mL] | MIC (K. pneumoniae ATCC 4352; [7]) [micrograms/mL] | MIC (E. coli NCTC9001; Table 4) [micrograms/mL] | MIC (E. coli NCTC9001; [5]) [micrograms/mL] | MIC (E. coli ATCC700928; Table 4) [micrograms/mL] | MIC (E. coli ATCC700928; [5]) [micrograms/mL] | MIC (E. coli NCTC12900; [5]) [micrograms/mL] | MIC (E. coli ATCC25922; Table 4) [micrograms/mL] | MIC (E. coli ATCC25922; [5]) [micrograms/mL] | MIC (A. baumannii ATCC19606; Table 4) [micrograms/mL] | MIC (A. baumannii ATCC19606; [5]) [micrograms/mL] | MIC (A. baumannii NCTC7844; Table 4) [micrograms/mL] | MIC (A. baumannii NCTC7844; [5]) [micrograms/mL] | MIC [4, 9] [micrograms/mL] | MIC [4, 10] [micrograms/mL] | MIC (P. aeruginosa ATCC 9721; [11]) [micrograms/mL] | further results
CCCCCCC(O)C(=O)N[C@H](C(=O)N[C@@H](CCN)C(=O)N[C@H]1CCNC(=O)[C@H](C(C)O)NC(=O)[C@H](CCN)NC(=O)[C@H](CCN)NC(=O)[C@H](CC(C)C)NC(=O)[C@@H](Cc2ccccc2)NC(=O)[C@H](CCN)NC1=O)C(C)O (stereo partly drawn) [Example 2, [2(R,S)-2-Hydroxyoctanoyl] Polymyxin B Nonapeptide, Sulphate Salt] (X1-[Thr(3ξ)][Dab][Dab][Dab][dF]L[Dab][Dab][Thr(3ξ)]; lactam 3-C) | 4 | 4 | 0.5 | 0.5 | 0.5 | 1 | 0.25 | 2 | 0.25 | 0.5 | 8 | 1 | 2 | 2 | 2 | 2 | 4 | 0.5 | 0.25 | 2 | MIC (K. pneumoniae NCTC8172; Table 4): 4 micrograms/mL; MIC (E. coli NCTC12900; Table 4): 0.25 micrograms/mL; MIC50 Clinical isolates [2]: 2 µg/mL; MIC50 Resistant strains [2]: 2 µg/mL; MIC90 Clinical isolates [2]: 4 µg/mL; MIC90 Resistant strains [2]: 4 µg/mL; MIC Range Clinical isolates [2]: 1 to 8 µg/mL; MIC Range Resistant strains [2]: 1 to 4 µg/mL; AUC(0-inf) [3, 8]: 4010 ng·h/mL; Cmax [3, 8]: 2400 ng/mL; Vd [3, 8]: 0.488 L/kg; clearance [3, 8]: 4.18 mL/min/kg; half-life [3, 8]: 1.34 h; MIC (P. aeruginosa ATCC 9721; [12]): 0.5 micrograms/mL; MIC (P. aeruginosa ATCC10145; Table 4): 1 micrograms/mL; MIC (P. aeruginosa ATCC10145; [5]): 1 micrograms/mL; MIC (P. aeruginosa ATCC27853; Table 4): 0.5 micrograms/mL; MIC (P. aeruginosa ATCC27853; [5]): 0.5 micrograms/mL
CC(C)C[C@@H]1NC(=O)[C@@H](Cc2ccccc2)NC(=O)[C@H](CCN)NC(=O)[C@@H](NC(=O)[C@H](CCN)NC(=O)[C@@H](NC(=O)CCCN)[C@@H](C)O)CCNC(=O)[C@H]([C@@H](C)O)NC(=O)[C@H](CCN)NC(=O)[C@H](CCN)NC1=O [Example 6, 4-Aminobutanoyl Polymyxin B Nonapeptide, Sulphate Salt] (H-[GABA]T[Dab][Dab][Dab][dF]L[Dab][Dab]T; lactam 4-C) | 16 | 0.125 | 0.125 | 0.25 | 0.125 | 1 | 1 | 8 | 0.125 | 2 | 8 | 0.5 | 2 | 0.25 | 4 | 2 | 2 | 0.25 | 0.125 | 0.125 | MIC (E. coli NCTC12900; Table 4): 2 micrograms/mL; MIC50 Clinical isolates [2]: 0.25 µg/mL; MIC50 Resistant strains [2]: 0.5 µg/mL; MIC90 Clinical isolates [2]: 16 µg/mL; MIC90 Resistant strains [2]: 8 µg/mL; MIC Range Clinical isolates [2]: 0.06 to 64 µg/mL; MIC Range Resistant strains [2]: 0.12 to 16 µg/mL; AUC(0-inf) [3, 8]: 2620 ng·h/mL; Cmax [3, 8]: 3580 ng/mL; Vd [3, 8]: 0.289 L/kg; clearance [3, 8]: 6.43 mL/min/kg; half-life [3, 8]: 0.56 h; MIC (P. aeruginosa ATCC 9721; [12]): 0.125 micrograms/mL; MIC (P. aeruginosa ATCC10145; Table 4): 0.25 micrograms/mL; MIC (P. aeruginosa ATCC10145; [5]): 0.5 micrograms/mL; MIC (P. aeruginosa ATCC27853; Table 4): 0.25 micrograms/mL; MIC (P. aeruginosa ATCC27853; [5]): 0.25 micrograms/mL
Polymyxin B [reference compound] | 1 | 0.25 | 0.25 | 0.25 | 0.5 | 0.25 | 0.25 | 0.25 | 0.25 | 0.25 | 0.25 | 0.5 | 1 | 0.5 | 0.125 | 0.25 | 0.25 | 0.25 | 0.25 | 0.5 | MIC (K. pneumoniae NCTC8172; Table 4): 0.5 micrograms/mL; CL (clearance) [3, 13]: 7.15 mL/min/kg; Vd [3, 13]: 1.12 L/kg; AUC(0-inf) [3, 14]: 2372 ng·h/mL; Cmax [3, 14]: 1455 ng/mL; t1/2 [3, 14]: 1.94 h; Urinary recovery ([3]; male Sprague Dawley rats, intravenous bolus 1 mg/kg, intact drug in urine in first 24 h): 0.3 % dose; MIC (P. aeruginosa ATCC 9721; [12]): 0.125 micrograms/mL; MIC (P. aeruginosa ATCC10145; Table 4): 0.5 micrograms/mL; MIC (P. aeruginosa ATCC10145; [5]): 1 micrograms/mL; MIC (P. aeruginosa ATCC27853; Table 4): 0.5 micrograms/mL; MIC (P. aeruginosa ATCC27853; [5]): 0.5 micrograms/mL
